system: Key Grass and Sedge Weeds as well as Grass Crops; assay: Post-Emergent Test II (Table 6); format: in vivo; settings: post-emergence, 336 h, CYPSS, 140 g ai/ha, 14 days after application, read-out: Visual Growth Reduction (%) 14 Days After Application CYPSS
Procedure, shortened: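 Visual injury ratings (0 = no injury, 100 = complete kill) taken 14 days after treatment, relative to untreated controls. Compounds, in an acetone/DMSO aqueous carrier with crop oil and surfactant, were applied by track sprayer at 187 L/ha, in a twofold dilution series from the top rate, to plants at the first to second true-leaf stage.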

| SMILES | pest or weed control at 140 g/ha [%] |
| --- | --- |
| Nc1c(F)c(-c2ccc(C3CC3)nc2)nc(C(=O)O)c1Cl [Compound 36, 4-amino-5-chloro-6′-cyclopropyl-3-fluoro-[2,3′-bipyridine]-6-carboxylic acid] | 95 to 100 |

same assay, conditions: post-emergence, 336 h, DIGSA: crabgrass (Digitaria sanguinalis), 70 g ai/ha, 14 days after application, read-out: Visual Growth Reduction (%) 14 Days After Application DIGSA

| SMILES | pest or weed control at 70 g/ha [%] |
| --- | --- |
| Nc1c(F)c(-c2ccc(C3CC3)nc2)nc(C(=O)O)c1Cl [Compound 36, 4-amino-5-chloro-6′-cyclopropyl-3-fluoro-[2,3′-bipyridine]-6-carboxylic acid] | 60 to 74 |

same assay, conditions: post-emergence, 336 h, DIGSA: crabgrass (Digitaria sanguinalis), 140 g ai/ha, 14 days after application, read-out: Visual Growth Reduction (%) 14 Days After Application DIGSA

| SMILES | pest or weed control at 140 g/ha [%] |
| --- | --- |
| Nc1c(F)c(-c2ccc(C3CC3)nc2)nc(C(=O)O)c1Cl [Compound 36, 4-amino-5-chloro-6′-cyclopropyl-3-fluoro-[2,3′-bipyridine]-6-carboxylic acid] | 75 to 84 |

same assay, conditions: post-emergence, 336 h, ECHSS, 70 g ai/ha, 14 days after application, read-out: Visual Growth Reduction (%) 14 Days After Application ECHSS

| SMILES | pest or weed control at 70 g/ha [%] |
| --- | --- |
| Nc1c(F)c(-c2ccc(C3CC3)nc2)nc(C(=O)O)c1Cl [Compound 36, 4-amino-5-chloro-6′-cyclopropyl-3-fluoro-[2,3′-bipyridine]-6-carboxylic acid] | 85 to 94 |

same assay, conditions: post-emergence, 336 h, ECHSS, 140 g ai/ha, 14 days after application, read-out: Visual Growth Reduction (%) 14 Days After Application ECHSS

| SMILES | pest or weed control at 140 g/ha [%] |
| --- | --- |
| Nc1c(F)c(-c2ccc(C3CC3)nc2)nc(C(=O)O)c1Cl [Compound 36, 4-amino-5-chloro-6′-cyclopropyl-3-fluoro-[2,3′-bipyridine]-6-carboxylic acid] | 85 to 94 |

same assay, conditions: post-emergence, 336 h, ORYSS (crop), 70 g ai/ha, 14 days after application, read-out: Visual Growth Reduction (%) 14 Days After Application ORYSS

| SMILES | pest or weed control at 70 g/ha [%] |
| --- | --- |
| Nc1c(F)c(-c2ccc(C3CC3)nc2)nc(C(=O)O)c1Cl [Compound 36, 4-amino-5-chloro-6′-cyclopropyl-3-fluoro-[2,3′-bipyridine]-6-carboxylic acid] | 0 to 29 |

same assay, conditions: post-emergence, 336 h, ORYSS (crop), 140 g ai/ha, 14 days after application, read-out: Visual Growth Reduction (%) 14 Days After Application ORYSS

| SMILES | pest or weed control at 140 g/ha [%] |
| --- | --- |
| Nc1c(F)c(-c2ccc(C3CC3)nc2)nc(C(=O)O)c1Cl [Compound 36, 4-amino-5-chloro-6′-cyclopropyl-3-fluoro-[2,3′-bipyridine]-6-carboxylic acid] | 0 to 29 |

same assay, conditions: post-emergence, 336 h, SETFA: giant foxtail (Setaria faberi), 70 g ai/ha, 14 days after application, read-out: Visual Growth Reduction (%) 14 Days After Application SETFA

| SMILES | pest or weed control at 70 g/ha [%] |
| --- | --- |
| Nc1c(F)c(-c2ccc(C3CC3)nc2)nc(C(=O)O)c1Cl [Compound 36, 4-amino-5-chloro-6′-cyclopropyl-3-fluoro-[2,3′-bipyridine]-6-carboxylic acid] | 95 to 100 |

same assay, conditions: post-emergence, 336 h, SETFA: giant foxtail (Setaria faberi), 140 g ai/ha, 14 days after application, read-out: Visual Growth Reduction (%) 14 Days After Application SETFA

| SMILES | pest or weed control at 140 g/ha [%] |
| --- | --- |
| Nc1c(F)c(-c2ccc(C3CC3)nc2)nc(C(=O)O)c1Cl [Compound 36, 4-amino-5-chloro-6′-cyclopropyl-3-fluoro-[2,3′-bipyridine]-6-carboxylic acid] | 95 to 100 |

same assay, conditions: post-emergence, 336 h, SORVU: grain sorghum (Sorghum vulgare), 70 g ai/ha, 14 days after application, read-out: Visual Growth Reduction (%) 14 Days After Application SORVU

| SMILES | pest or weed control at 70 g/ha [%] |
| --- | --- |
| Nc1c(F)c(-c2ccc(C3CC3)nc2)nc(C(=O)O)c1Cl [Compound 36, 4-amino-5-chloro-6′-cyclopropyl-3-fluoro-[2,3′-bipyridine]-6-carboxylic acid] | 60 to 74 |

same assay, conditions: post-emergence, 336 h, SORVU: grain sorghum (Sorghum vulgare), 140 g ai/ha, 14 days after application, read-out: Visual Growth Reduction (%) 14 Days After Application SORVU

| SMILES | pest or weed control at 140 g/ha [%] |
| --- | --- |
| Nc1c(F)c(-c2ccc(C3CC3)nc2)nc(C(=O)O)c1Cl [Compound 36, 4-amino-5-chloro-6′-cyclopropyl-3-fluoro-[2,3′-bipyridine]-6-carboxylic acid] | 60 to 74 |

same assay, conditions: post-emergence, 336 h, TRZSS (crop), 70 g ai/ha, 14 days after application, read-out: Visual Growth Reduction (%) 14 Days After Application TRZSS

| SMILES | pest or weed control at 70 g/ha [%] |
| --- | --- |
| Nc1c(F)c(-c2ccc(C3CC3)nc2)nc(C(=O)O)c1Cl [Compound 36, 4-amino-5-chloro-6′-cyclopropyl-3-fluoro-[2,3′-bipyridine]-6-carboxylic acid] | 30 to 44 |

same assay, conditions: post-emergence, 336 h, TRZSS (crop), 140 g ai/ha, 14 days after application, read-out: Visual Growth Reduction (%) 14 Days After Application TRZSS

| SMILES | pest or weed control at 140 g/ha [%] |
| --- | --- |
| Nc1c(F)c(-c2ccc(C3CC3)nc2)nc(C(=O)O)c1Cl [Compound 36, 4-amino-5-chloro-6′-cyclopropyl-3-fluoro-[2,3′-bipyridine]-6-carboxylic acid] | 45 to 59 |

same assay, conditions: post-emergence, 336 h, ZEAMX: maize, corn (Zea mays), 70 g ai/ha, 14 days after application, read-out: Visual Growth Reduction (%) 14 Days After Application ZEAMX

| SMILES | pest or weed control at 70 g/ha [%] |
| --- | --- |
| Nc1c(F)c(-c2ccc(C3CC3)nc2)nc(C(=O)O)c1Cl [Compound 36, 4-amino-5-chloro-6′-cyclopropyl-3-fluoro-[2,3′-bipyridine]-6-carboxylic acid] | 95 to 100 |

same assay, conditions: post-emergence, 336 h, ZEAMX: maize, corn (Zea mays), 140 g ai/ha, 14 days after application, read-out: Visual Growth Reduction (%) 14 Days After Application ZEAMX

| SMILES | pest or weed control at 140 g/ha [%] |
| --- | --- |
| Nc1c(F)c(-c2ccc(C3CC3)nc2)nc(C(=O)O)c1Cl [Compound 36, 4-amino-5-chloro-6′-cyclopropyl-3-fluoro-[2,3′-bipyridine]-6-carboxylic acid] | 95 to 100 |

system: not given; assay: not given; settings: not given

| melting point | SMILES |
| --- | --- |
| 260 to 265 °C (dec.) | Nc1c(F)c(-c2ccc(C3CC3)nc2)nc(C(=O)O)c1Cl [Compound 36, 4-amino-5-chloro-6′-cyclopropyl-3-fluoro-[2,3′-bipyridine]-6-carboxylic acid] |
